These results are taken from patent US20070155841A1, “Preventive agent for carcinogenesis of liver cancer containing quinone-based compound as active ingredient” (Eisai Co., Ltd., priority 2004, published 2007).

For series [1], the system named is liver cancer (hepatocellular carcinoma) in female virus cirrhosis patients. Kind of series: Randomized clinical trial with 7-year follow-up: development of liver cancer in virus cirrhosis patients. It is filed as in vivo, human. As to conditions: for Adjusted odds ratio for development of HCC (treatment group to control group): multivariate analysis adjusted for age, ALT, albumin, total bilirubin, platelet count, AFP, history of IFN-α, 95% CI 0.016-0.992, P 0.0491; for Crude odds ratio for development of HCC (treatment group to control group): univariate analysis, 95% CI 0.042-0.913, P 0.038. As to the method:
A primary test was conducted targeting 50 female virus cirrhosis patients.
The diagnosis of cirrhosis was based on histological examination of liver specimens obtained by laparoscopy or needle biopsy performed under ultrasonic guidance.
Half were randomly assigned to receive 45 mg/day of vitamin K2 (Glakay;
Eisai Co., Tokyo, Japan) p.o., and half were assigned to the control group. Randomization was performed by placing the treatment assignments in sealed envelopes.
At the end of the first study, 21 patients in the treatment group and 19 patients in the control group agreed to participate in a longer trial. These patients were infected with the hepatitis C virus except for one patient in each group that had hepatitis B.
The clinical trial was conducted in accordance with the Helsinki Declaration and was approved by our ethics committee.
Statistical analysis was carried out with SAS software (version 8.12). The χ2 test was used to assess the homogeneity of groups. Cumulative incidences were plotted by the Kaplan-Meier method, and statistical significance of differences was analyzed by the log-rank test. Cox's regression analysis was used for univariate and multivariate analysis. In both studies, the two groups were similar with respect to age, the Child-Pugh stage, and the other clinical findings (See Table 1).

For series [2] the following is noted: cited from earlier work.
A further series has as its system leukemia cells. As to conditions: in vitro, Patent Literature 1; cited from earlier work.
Series [3] relates to liver cancer which has been treated. As to conditions: Non-Patent Literature 6 and 7, cited from earlier work.
A further series relates to tumor cells. As to conditions: Non-Patent Literature 5; cited from earlier work.

For the compound `CC(C)=CCC/C(C)=C/CC/C(C)=C/CC/C(C)=C/CC1=C(C)C(=O)c2ccccc2C1=O` [menatetrenone, 2-methyl-3-tetraprenyl-1,4-naphthoquinone], in series [1] (listed as VK2), the “Adjusted odds ratio for development of HCC (treatment group to control group)” value stood at 0.126 and the “Crude odds ratio for development of HCC (treatment group to control group)” value turned out to be 0.195. In addition, in series [1] (listed as vitamin K2), the “Adjusted odds ratio for development of HCC (treatment group to control group)” value is on record as 0.126 (0.016 to 0.992) and the “Crude odds ratio for development of HCC (treatment group to control group)” value was 0.195 (from 0.042 to 0.913). Besides, the “cumulative incidence percentage of liver cancer patients versus control group” value in series [1] (treatment group, 45 mg/day p.o., 7-year follow-up, Kaplan-Meier (FIG. 1)) is “much smaller than that in the control group”. In series [1] (treatment group, 45 mg/day p.o., 7-year follow-up, control group 9 of 19), the “patients who developed liver cancer” value is 2 of 21. Further, in series [2], the solubility in water entry is “nearly insoluble in water”. Further, the differentiation induction activity result in the series on leukemia cells was “differentiation induction activity in leukemia cells”. Besides, the “recurrence of treated liver cancer” value in series [3] (patients who already had cancer) is given as “suppresses recurrence of liver cancer”. In series [3] (patients with treated liver cancer), the survival percentage entry was “heightens the survival percentage”.
Turning to `CC(C)=CCC/C(C)=C/CC/C(C)=C/CC/C(C)=C/CO` [geranylgeraniol], the induction of apoptosis entry in the series with tumor cells is given as “potent inducer of apoptosis in tumor cells”.
